The conditions of data set [1]: male, Sprague-Dawley, rat, in vivo.
Procedure: (§4) Propofol hemisuccinate sodium salt in aqueous solution was administered to adult male Sprague-Dawley rats by gavage. Blood was collected at 2, 4, 8 and 24 hours after dosing, and analyzed by HPLC as described in example 3.
The nature of data set [2]: In vivo hydrolysis of propofol hemisuccinate after gavage. Conditions: rats, two day observation period following the dosing.
Procedure: as §4
For data set [3], the system named is low density lipoprotein (LDL). Put plainly: Copper-promoted oxidation of LDL (conjugated dienes). In kind it is biochemical, human. Conditions: 5 μM compound; 100 μg/ml LDL, 5 μM copper sulfate. The source says: (§1) The following experiment is based on the use of low density lipoprotein (LDL) as an oxidizable substrate. LDL is one of the plasma lipoproteins whose oxidation is thought to contribute to the pathogenesis of atherosclerosis. The copper-promoted, the hydrogen peroxide-/horseradish peroxidase-promoted and the myeloperoxidase-promoted oxidation of LDL are models for the free radical-induced oxidation of LDL that occurs in vivo.
(§2) LDL was isolated from heparinized plasma of normal human donors by ultracentrifugation. Most of the experiments described in this study were performed immediately after isolation. Examples and further details of the experimental procedures may be found in N. Santanam et al J. Clin Invest. 95(6):2594 (1995) and FEBS Letters, 414:549-551 (1997).
(§3) The formation of conjugated dienes was measured in a spectrophotometer (model DB-3500; SLM-AMINCO, Urbana, Ill.) equipped with a 12 position sample changer. Samples and references were measured continuously for periods of up to several hours. Typically, 100 μg/ml of LDL was incubated in PBS with 1 U horseradish peroxidase (type X, 260 U/mg) in the presence of 50 μM H2O2. For copper-mediated oxidation, 100 μg/ml LDL was incubated with 5 μM copper sulfate solution.

Data set [4] has as its system low density lipoprotein (LDL). Put plainly: Hydrogen peroxide/horseradish peroxidase-promoted oxidation of LDL (conjugated dienes). In kind it is biochemical, human. To be noted: 5 μM compound; 100 μg/ml LDL, 1 U horseradish peroxidase, 50 μM H2O2.
Source text: as §1, §2, §3

The values that follow come from US6362234B1, “Water-soluble prodrugs of propofol for treatment of migrane” (Vyrex Corporation, priority 2000, dated 2002).

Where a name gives a salt, the structure may show the parent alone.

For the compound `CC(C)c1cccc(C(C)C)c1OC(=O)CCC(=O)O` [propofol hemisuccinate, 2,6-diisopropylphenyl hydrogen succinate], in data set [1], the “Time of peak blood levels of propofol after dosing” value was in the range of 2 to 4 h. Besides, the “Condition of the animals after dosing” value in data set [2] was “All the animals remained healthy and active”. The melting point is the temperature, or range, at which the solid turns liquid. `CC(C)c1cccc(C(C)C)c1OC(=O)CCC(=O)O` (as salt: succinate) [propofol hemisuccinate, 2,6-diisopropylphenyl hydrogen succinate] yielded a melting point of 101 to 102 °C. Take “mono(propofol) phosphate disodium salt [(mono)propofol phosphate]”: in data set [3], the “Effect on copper-promoted oxidation of LDL” value was “not significantly affected”. Besides, the “Effect on oxidation of LDL in the presence of horseradish peroxidase/hydrogen peroxide” value in data set [4] is on record as “not significantly affected”.
